According to patent US5614192A, “T cell receptor peptides as therapeutics for immune-related disease” (Connective Therapeutics, Inc., priority 1993, dated 1997):

Experiments:
T cell immunity = T cell immunity / DH response induced by peptide; type: in vivo; conditions: Lewis rats
Source text: Immunogenicity of peptides useful in the present invention can be screened by well-known methods, such as use of a DH response in an animal. In such a response, an animal is "sensitized" by injection of an appropriate dose of an antigen, typically subcutaneously (SC), frequently with an adjuvant, such as complete Freund's adjuvant (CFA). Generally about 5-15 days later, the response is "elicited" by challenging the animal, typically intradermally (ID), with an appropriate dose of the antigen, typically in saline or other buffer. The response is assessed 24-48 hours later. […]
The desired peptides, with sequences determined as described above, are prepared using standard synthesis techniques including solution and solid phase sequential amino acid conjugation and recombinant production in prokaryotic or eukaryotic hosts. Verification that the peptide prepared is immunogenic can easily be determined using a DH reaction in an animal (e.g., mouse or rat), as described above. […] The ear swelling response, measured 24 or 48 hours after challenge, serves as a simple and reliable measure of the presence of T cell-mediated immunity to the peptide.

EAE [1] = experiment: Prevention of EAE by immunization with TCR peptide (Example VI); type: in vivo, Lewis rats; conditions: for protection from EAE: Lewis rats
Source text: EAE is a well-recognized rat model of the human autoimmune disease, multiple sclerosis. […] In this model, the disease is induced by injecting the subject rat with an encephalitogenic form of myelin basic protein, such as, for example, guinea pig basic protein (GPBP) or a synthetic peptide that corresponds to residues 72-89 of GPBP (GPBP(72-89)). Injection of either of these peptides in complete Freund's adjuvant (CFA) induces encephalitogenic T cell clones that utilize preferentially the rat homologs of mouse TCR Vα2 and Vβ8 genes (Chou, Y. K., et al., J. Neurosci. Res. 22:181-187 (1989); Burns, F. R., et al., J. Exp. Med. 169:27-39 (1989)).
^1 EAE was induced by SC challenge with 50 μg GPBP + 400 μg
^2 Rats were injected SC with either: (1) 100 μg of the TCR peptid
^3 Values represent the mean of the maximum severity of EAE. 0, no

[2] = test system: lymph node cells and Vβ8-44-54 selected T cell line
TCR Vβ8(39-59) peptide = type: binding, rat
[3] = test system: T cell lines derived from rats protected from EAE; experiment: Proliferation of LN cells and T cell lines from rats protected by TCR Vβ8 peptide (Table 12); type: cell-based, rat
EAE [4] = experiment: Prevention and suppression of EAE by immunization with TCR Vβ8(39-59) (Table 17); type: in vivo, Lewis rats; conditions: 100 μg peptide/CFA day 0, Gp-S49S (100 μg) challenge day 0
EAE [5] = experiment: Clinical EAE in rats treated with TCR Vβ8(39-59) before or after onset (Table 22); type: in vivo; conditions: Exp. 2; control TCR peptide, day 13
Protocol: The ability of the TCR Vβ8(39-59) given either SC (in adjuvant) or ID (in saline) to disrupt the disease process when given at various times after induction of EAE with GPBP was tested (Table 22). […] In both cases, with both routes of injection of the peptide, there was a significant reduction in the duration of the disease, though not in the severity or time of onset. The efficacy of the peptide given in saline via the ID route is of particular importance to human therapy, as it is preferred to SC injection in adjuvant.
In Experiment 2, the time of ID administration of the TCR peptide was varied, as was the dose. […] A delay in onset of the disease was also observed. Furthermore, the percentage of animals showing signs of the disease decreased. A larger dose of the peptide (200 μg) appeared less efficacious than the lower dose, possibly due to a short-term overload of the peptide which could have comprised the immune response generated against the TCR. Treatment with a similarly sized peptide corresponding to an irrelevant TCR had no effect on onset, severity or incidence of EAE, but may have reduced the duration somewhat (last line of Table 22).

EAE [6] = experiment: Prevention, suppression and treatment of EAE with TCR Vβ8-39-59 peptide (Table 25); type: in vivo, Lewis rats; conditions: peptide/CFA s.q.
DTH response = experiment: Delayed hypersensitivity responses to TCR peptides, ear swelling (Table 26); type: in vivo, Lewis rats
LNC and T cell lines = experiment: T cell proliferation after treatment of EAE with TCR Vβ8 39-59/CFA (Table 27); type: cell-based, rats
Protocol: Lymphocyte Proliferation: Activation of T cells was measured by ^3 H-Tdy uptake. 500,000 lymph node cells or 20,000 line cells in the presence of 1 million irradiated thymic accessory cells were incubated with culture medium and antigens in microtiter wells for 18 hours prior to the addition of 0.5 μBq labeled thymidine. The cell cultures were harvested onto glass fiber filters and counted by liquid scintillation techniques. Mean CPM were calculated from triplicate cultures. Standard deviations (SD) from replicate cultures varied <10% from the mean value.
^a Treated rats were injected s.q. with 50 μg TCR Vβ839-59
^b LW cells collected after the untreated group recovered from EAE

[7] = 100 μg peptide/CFA SC 30 days before GPBP/CFA

KQNNNHNNMYWYRQDMG [Vβ8 (25-41)]
induction of T cell immunity (T cell immunity): does not induce T cell immunity
protection from EAE (EAE [1]): does not protect Lewis rats from EAE
Response of Lymph Node Cells [2]: 14 ± 0
Response of T Cell Line [2]: 6 ± 1

APGGTLQQLFYSFNVGQSLF [TCR Vβ14 peptide, reference compound]
induction of T cell immunity (T cell immunity): did induce immunity
EAE Day of Onset (EAE [1]; [7]): 14 ± 2
EAE Duration (EAE [1]; [7]): 6 ± 2
EAE Severity (mean of maximum severity, scale 0-4) (EAE [1]; [7]): 3.1 ± 0.3
EAE Incidence (EAE [1]; 100 μg peptide/CFA SC 30 days before challenge with 50 μg GPBP/CFA): 4/4
protection from EAE (EAE [1]): did not confer protection against EAE
protection from EAE (EAE [1]; listed as Vβ14(39-59)): did not provide protection from EAE
absorbance of serum on TCR Vβ8(39-59) peptide (A405) (TCR Vβ8(39-59) peptide): 0.02±0.01 units
T Cell Proliferation ([3]; 1st value column (head not given; LN cells of protected rats)): 10 cpm × 10^-3
T Cell Proliferation ([3]; 2nd value column (head not given, TCR Vβ8(39-59)-selected line)): 2 cpm × 10^-3
Clinical Score (EAE [4]): 2.9
Day of Onset (EAE [5]): 13.7 ± 0.5
Disease Duration (EAE [5]): 3.5 ± 0.5
Disease Incidence (EAE [5]): 6/6
Disease Severity (EAE [5]): 2.5 ± 0.8
Duration (EAE [6]; Day 0): 6.4 ± 0.3 days
EAE/TOTAL (EAE [6]; Day 0): 6/6
Max Clin. Signs (EAE [6]; Day 0): 3.3 ± 0.5
Onset (EAE [6]; Day 0): 12
Duration (EAE [6]; Day -40): 6.1 ± 0.6 days
EAE/TOTAL (EAE [6]; Day -40): 8/8
Max Clin. Signs (EAE [6]; Day -40): 3.2 ± 0.3
Onset (EAE [6]; Day -40): 12
Duration (EAE [6]; Day onset): 6.0 ± 1.5 days
EAE/TOTAL (EAE [6]; Day onset): 4/4
Max Clin. Signs (EAE [6]; Day onset): 3.0 ± 0.4
Onset (EAE [6]; Day onset): 12
48 Hour DTH Response (DTH response; GP-BP/CFA immunized rats, ear test Day 12 (EAE onset)): 11 ± 4
48 Hour DTH Response (DTH response; Normal or saline/CFA rats, ear test Day 12): 10 ± 4
48 Hour DTH Response (DTH response; TCR Vβ8 peptide/CFA immunized rats, ear test Day 30): 9 ± 3
48 Hour DTH Response (DTH response; TCR Vβ814 (so in the source) peptide/CFA immunized rats, ear test Day 30): 40 ± 4
Proliferation (LNC and T cell lines; Treated rats, line Vβ8/1st): 8 ± 2 CPM/1000
Proliferation (LNC and T cell lines; Untreated rats (GPBP/CFA only), LNC): 29 ± 4 CPM/1000
Proliferation (LNC and T cell lines; Untreated rats, line BP/1st): 17 ± 2 CPM/1000
Proliferation (LNC and T cell lines; Untreated rats, line Vβ8/1st): 11 ± 2 CPM/1000
Proliferation (LNC and T cell lines; Untreated rats, line Vβ14/1st): 25 ± 6 CPM/1000
Response of Lymph Node Cells [2]: 18 ± 2
Response of T Cell Line [2]: 9 ± 1
